Where a name gives a salt, the structure may show the parent alone.

One may read the melting point as the temperature, or range, at which the solid turns liquid.

The compound `Nc1cccc(C(CC2=NCCN2)c2ccccn2)c1` (stereo not shown) (as salt: fumarate) [Example 39, 3-[2-(4,5-Dihydro-1H-imidazol-2-yl)-1-pyridin-2-yl-ethyl]-phenylamine] displayed a melting point of 154 to 155 °C. On to `O=Cc1cccc(C(CC2=NCCN2)c2ccccn2)c1` (stereo not shown) (as salt: fumarate) [Example 34, 3-[2-(4,5-Dihydro-1H-imidazol-2-yl)-1-pyridin-2-yl-ethyl]-benzaldehyde], for which the melting point lay within 138 to 139 °C. As to `Nc1cc2c(c(C(CC3=NCCN3)c3ccccn3)c1)OCC2` (stereo not shown) [Example 41, 7-[2-(4,5-Dihydro-1H-imidazol-2-yl)-1-pyridin-2-yl-ethyl]-2,3-dihydro-benzofuran-5-ylamine], the melting point fell in the range of 143 to 144 °C. With `C(/C1=NCCN1)=C(/c1cccc(C2OCCO2)c1)c1ccccn1` (as salt: fumarate) [Example 32, 2-[2-(4,5-Dihydro-1H-imidazol-2-yl)-1-(3-[1,3]dioxolan-2-yl-phenyl)-vinyl]-pyridine], the melting point lay in the range of 98 to 98.5 °C. The same measure for `FC(F)(F)c1cccc(/C(=C/C2=NCCN2)c2ccc3ccccc3n2)c1` [Example 38, vinyl compound, 2-[2-(4,5-Dihydro-1H-imidazol-2-yl)-1-(3-trifluoromethyl-phenyl)-vinyl]-quinoline]: 76.5 °C; for `FC(F)(F)c1cccc(C(CC2=NCCN2)c2ccc3ccccc3n2)c1` (stereo not shown) [Example 38, ethyl compound, 2-[2-(4,5-Dihydro-1H-imidazol-2-yl)-1-(3-trifluoromethyl-phenyl)-ethyl]-quinoline]: 92 to 93 °C; for `c1ccc(C(CC2=NCCN2)c2cccc3c2OCC3)nc1` (stereo not shown) (as salt: fumarate) [Example 40, 1-(2,3-Dihydro-7-benzofuranyl)-2-(4,5-dihydro-2-imidazolyl)-1-(2-pyridyl)-ethane]: 166 to 167 °C. On to `OCc1cccc(C(CC2=NCCN2)c2ccccn2)c1` (stereo not shown) (as salt: fumarate) [Example 35, 3-[2-(4,5-Dihydro-1H-imidazol-2-yl)-1-pyridin-2-yl-ethyl]-phenyl-methanol], for which the melting point lay in the range of 114 to 115 °C.

In turn, `Oc1cc2c(c(C(CC3=NCCN3)c3ccccn3)c1)OCC2` (stereo not shown) (as salt: hydroiodid) [Example 30, 7-[2-(4,5-Dihydro-1H-imidazol-2-yl)-1-pyridin-2-yl-ethyl]-2,3-dihydro-benzofuran-5-ol] registered a melting point of 186 to 187 °C. To `c1ccc(C(CC2=NCCN2)c2cccc(C3OCCO3)c2)nc1` (stereo not shown) (as salt: fumarate) [Example 33, 2-[2-(4,5-Dihydro-1H-imidazol-2-yl)-1-(3-[1,3]dioxolan-2-yl-phenyl)ethyl]pyridine] belongs 162 to 162.5 °C.

Values taken from patent publication US20020132812A1, “Oral hypoglycaemic agents” (priority 2000, published 2002).
